In publication PMC9848257, “Design and synthesis of novel rigid dibenzo[b,f]azepines through ring closure technique as promising anticancer candidates against leukaemia and acting as selective topoisomerase II inhibitors and DNA intercalators” (Journal of Enzyme Inhibition and Medicinal Chemistry, 2023):

Legend:
Assay type in all cases: cell-based
OVCAR-5 = experiment: NCI-60 one-dose screen, OVCAR-5; details: Homo sapiens; OVCAR-5, ovarian cancer; single dose 10 μM; read-out: Growth inhibition %
Method: (§1) Anti-proliferative effects of the counterparts 4a–g and 5a–g were screened against 60 human cancer cell lines, following the Developmental Therapeutics Program protocol, National Cancer Institute[35].
(§2) The anti-tumour activity of the fourteen synthesised congeners was investigated at the NCI against a panel of 60 cancer cell lines (NCI-60 Cell One-Dose Screen). The tested dibenzo[b,f]azepine derivatives were screened at a single dose level (10 μM), Table 1.

NCI-H23 = experiment: NCI-60 one-dose screen, NCI-H23; details: Homo sapiens; NCI-H23, non-small cell lung cancer; single dose 10 μM; read-out: Growth inhibition %
Method: as §1, §2

MCF-7 = experiment: NCI-60 one-dose screen, MCF-7; details: Homo sapiens, MCF7; MCF-7, breast cancer; single dose 10 μM; read-out: Growth inhibition %
Method: as §1, §2

MALME-3M = experiment: NCI-60 one-dose screen, MALME-3M; details: Homo sapiens, melanoma, single dose 10 μM, read-out: Growth inhibition %
Method: as §1, §2

SK-MEL-2 = experiment: NCI-60 one-dose screen, SK-MEL-2; details: Homo sapiens; SK-MEL-2, melanoma; single dose 10 μM; read-out: Growth inhibition %
Method: as §1, §2

HOP-62 = experiment: NCI-60 one-dose screen, HOP-62; details: Homo sapiens; HOP-62, non-small cell lung cancer; single dose 10 μM; read-out: Growth inhibition %
Method: as §1, §2

NCI-H460 = experiment: NCI-60 one-dose screen, NCI-H460; details: Homo sapiens; NCI-H460, non-small cell lung cancer; single dose 10 μM; read-out: Growth inhibition %
Method: as §1, §2

HCT-15 = experiment: NCI-60 one-dose screen, HCT-15; details: Homo sapiens; HCT-15, colon cancer; single dose 10 μM; read-out: Growth inhibition %
Method: as §1, §2

CAKI-1 = experiment: NCI-60 one-dose screen, CAKI-1; details: Homo sapiens; CAKI-1, renal cancer; single dose 10 μM; read-out: Growth inhibition %
Method: as §1, §2

SF-539 = experiment: NCI-60 one-dose screen, SF-539; details: Homo sapiens; SF-539, CNS cancer; single dose 10 μM; read-out: Growth inhibition %
Method: as §1, §2

NCI-H322M = experiment: NCI-60 one-dose screen, NCI-H322M; details: Homo sapiens, non-small cell lung cancer, single dose 10 μM, read-out: Growth inhibition %
Method: as §1, §2

A549-ATCC = experiment: NCI-60 one-dose screen, A549-ATCC; details: Homo sapiens, non-small cell lung cancer, single dose 10 μM, read-out: Growth inhibition %
Method: as §1, §2

T-47D = experiment: NCI-60 one-dose screen, T-47D; details: Homo sapiens, T47D, breast cancer, single dose 10 μM, read-out: Growth inhibition %
Method: as §1, §2

LOX IMVI = experiment: NCI-60 one-dose screen, LOX IMVI; details: Homo sapiens, melanoma, single dose 10 μM, read-out: Growth inhibition %
Method: as §1, §2

786-0 = experiment: NCI-60 one-dose screen, 786-0; details: Homo sapiens; 786-0, renal cancer; single dose 10 μM; read-out: Growth inhibition %
Method: as §1, §2

NCI/ADR-RES = experiment: NCI-60 one-dose screen, NCI/ADR-RES; details: Homo sapiens, ovarian cancer, single dose 10 μM, read-out: Growth inhibition %
Method: as §1, §2

MDA-MB-468 = experiment: NCI-60 one-dose screen, MDA-MB-468; details: Homo sapiens; MDA-MB-468, breast cancer; single dose 10 μM; read-out: Growth inhibition %
Method: as §1, §2

M14 = experiment: NCI-60 one-dose screen, M14; details: Homo sapiens; M14, melanoma; single dose 10 μM; read-out: Growth inhibition %
Method: as §1, §2

UACC-257 = experiment: NCI-60 one-dose screen, UACC-257; details: Homo sapiens; UACC-257, melanoma; single dose 10 μM; read-out: Growth inhibition %
Method: as §1, §2

RXF 393 = experiment: NCI-60 one-dose screen, RXF 393; details: Homo sapiens; RXF 393, renal cancer; single dose 10 μM; read-out: Growth inhibition %
Method: as §1, §2

SN12C = experiment: NCI-60 one-dose screen, SN12C; details: Homo sapiens, renal cancer, single dose 10 μM, read-out: Growth inhibition %
Method: as §1, §2

HCC-2998 = experiment: NCI-60 one-dose screen, HCC-2998; details: Homo sapiens; HCC-2998, colon cancer; single dose 10 μM; read-out: Growth inhibition %
Method: as §1, §2

IGROV1 = experiment: NCI-60 one-dose screen, IGROV1; details: Homo sapiens, IGROV-1; IGROV1, ovarian cancer; single dose 10 μM; read-out: Growth inhibition %
Method: as §1, §2

ACHN = experiment: NCI-60 one-dose screen, ACHN; details: Homo sapiens, renal cancer, single dose 10 μM, read-out: Growth inhibition %
Method: as §1, §2

SMILES	inhibition at 10 µM (OVCAR-5)	inhibition at 10 µM (NCI-H23)	inhibition at 10 µM (MCF-7)	inhibition at 10 µM (MALME-3M)	inhibition at 10 µM (SK-MEL-2)	inhibition at 10 µM (HOP-62)	inhibition at 10 µM (NCI-H460)	inhibition at 10 µM (HCT-15)	inhibition at 10 µM (CAKI-1)	inhibition at 10 µM (SF-539)	inhibition at 10 µM (NCI-H322M)	inhibition at 10 µM (A549-ATCC)	inhibition at 10 µM (T-47D)	inhibition at 10 µM (LOX IMVI)	inhibition at 10 µM (786-0)	inhibition at 10 µM (NCI/ADR-RES)	inhibition at 10 µM (MDA-MB-468)	inhibition at 10 µM (M14)	inhibition at 10 µM (UACC-257)	inhibition at 10 µM (RXF 393)	also measured
O=C(NNC(=O)N1c2ccccc2C=Cc2ccccc21)c1ccccc1 [Compound 4a, N′-Benzoyl-5H-dibenzo[b,f]azepine-5-carbohydrazide]	< 10%	< 10%	< 10%	< 10%	< 10%	< 10%	< 10%	< 10%	< 10%	< 10%	< 10%	< 10%	< 10%	< 10%	< 10%	< 10%	< 10%	< 10%	< 10%	< 10%	inhibition at 10 µM (SN12C): < 10%; inhibition at 10 µM (HCC-2998): < 10%; inhibition at 10 µM (IGROV1): < 10%; inhibition at 10 µM (ACHN): < 10%
O=C(NNC(=O)N1c2ccccc2C=Cc2ccccc21)c1ccc(Br)cc1 [Compound 4b, N′-(4-Bromobenzoyl)-5H-dibenzo[b,f]azepine-5-carbohydrazide]	< 10%	< 10%	< 10%	< 10%	< 10%	< 10%	< 10%	< 10%	< 10%	< 10%	< 10%	18.5%	< 10%	< 10%	21.1%	< 10%	< 10%	< 10%	14.4%	< 10%	inhibition at 10 µM (SN12C): < 10%; inhibition at 10 µM (HCC-2998): < 10%; inhibition at 10 µM (IGROV1): < 10%; inhibition at 10 µM (ACHN): 14%
O=C(NNC(=O)N1c2ccccc2C=Cc2ccccc21)c1ccc(Cl)cc1 [Compound 4c, N′-(4-Chlorobenzoyl)-5H-dibenzo[b,f]azepine-5-carbohydrazide]	< 10%	< 10%	< 10%	< 10%	< 10%	< 10%	< 10%	< 10%	< 10%	< 10%	< 10%	< 10%	< 10%	< 10%	< 10%	< 10%	< 10%	< 10%	12.6%	< 10%	inhibition at 10 µM (SN12C): < 10%; inhibition at 10 µM (HCC-2998): < 10%; inhibition at 10 µM (IGROV1): < 10%; inhibition at 10 µM (ACHN): 13.3%
Cc1ccc(C(=O)NNC(=O)N2c3ccccc3C=Cc3ccccc32)cc1 [Compound 4d, N′-(4-Methylbenzoyl)-5H-dibenzo[b,f]azepine-5-carbohydrazide]	< 10%	< 10%	< 10%	< 10%	< 10%	< 10%	< 10%	< 10%	< 10%	< 10%	< 10%	< 10%	< 10%	< 10%	< 10%	< 10%	< 10%	< 10%	< 10%	< 10%	inhibition at 10 µM (SN12C): < 10%; inhibition at 10 µM (HCC-2998): < 10%; inhibition at 10 µM (IGROV1): < 10%; inhibition at 10 µM (ACHN): < 10%
O=C(NNC(=O)N1c2ccccc2C=Cc2ccccc21)c1ccc([N+](=O)[O-])cc1 [Compound 4e, N′-(4-Nitrobenzoyl)-5H-dibenzo[b,f]azepine-5-carbohydrazide]	< 10%	< 10%	< 10%	< 10%	< 10%	< 10%	< 10%	< 10%	< 10%	< 10%	< 10%	< 10%	< 10%	< 10%	< 10%	< 10%	< 10%	< 10%	< 10%	< 10%	inhibition at 10 µM (SN12C): < 10%; inhibition at 10 µM (HCC-2998): < 10%; inhibition at 10 µM (IGROV1): < 10%; inhibition at 10 µM (ACHN): < 10%
O=C(NNC(=O)N1c2ccccc2C=Cc2ccccc21)c1ccc2ccccc2c1 [Compound 4f, N′-(2-Naphthoyl)-5H-dibenzo[b,f]azepine-5-carbohydrazide]	< 10%	< 10%	14%	< 10%	< 10%	< 10%	< 10%	< 10%	< 10%	< 10%	< 10%	< 10%	12.6%	< 10%	< 10%	< 10%	12.3%	< 10%	< 10%	< 10%	inhibition at 10 µM (SN12C): < 10%; inhibition at 10 µM (HCC-2998): < 10%; inhibition at 10 µM (IGROV1): < 10%; inhibition at 10 µM (ACHN): < 10%
O=C(Cc1ccccc1)NNC(=O)N1c2ccccc2C=Cc2ccccc21 [Compound 4g, N′-(2-Phenylacetyl)-5H-dibenzo[b,f]azepine-5-carbohydrazide]	< 10%	< 10%	< 10%	< 10%	< 10%	< 10%	< 10%	< 10%	< 10%	< 10%	< 10%	< 10%	< 10%	< 10%	< 10%	< 10%	< 10%	< 10%	< 10%	< 10%	inhibition at 10 µM (SN12C): < 10%; inhibition at 10 µM (HCC-2998): < 10%; inhibition at 10 µM (IGROV1): < 10%; inhibition at 10 µM (ACHN): < 10%
